Read-outs that look alike come from different tables or passages of the source.
What was measured:
Type in all cases: cell-based
A. baumannii = experiment: MIC broth microdilution (CLSI); conditions: Acinetobacter baumannii
Method in brief: (§1)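 Organisms from overnight agar colonies were adjusted to 0.5 McFarland and tested in cation-adjusted Mueller-Hinton broth at a final 5×10^5 CFU/mL against 2-fold serial compound dilutions. Plates were incubated in ambient air at 35° C. for 18-24 hours; MIC was the lowest concentration preventing visible growth (OD 600 nm<0.05).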

E. coli = experiment: MIC broth microdilution (CLSI); conditions: Escherichia coli
Method in brief: as §1

K. aerogenes = experiment: MIC broth microdilution (CLSI); conditions: Klebsiella aerogenes; strain AEAE1042, MDR Clinical isolate (CDC CRE panel), CDC AR Bank 0161
Method in brief: as §1

P. aeruginosa [1] = experiment: MIC broth microdilution (CLSI); conditions: Pseudomonas aeruginosa
Method in brief: as §1

P. mirabilis = experiment: MIC broth microdilution (CLSI); conditions: Proteus mirabilis; strain APMI1048, MDR Clinical isolate (CDC CRE panel), CDC AR Bank 0159
Method in brief: as §1

S. enterica = experiment: MIC broth microdilution (CLSI); conditions: Salmonella enterica, read-out: Activity (MIC)
Method in brief: as §1

[2] = test system: A. baumannii-calcoaceticus; experiment: Antibacterial surveillance of clinical isolates (MIC50/90); conditions: 100 isolates
Procedure: (§2) Minimum inhibitory concentrations for representative example compounds herein were determined by a broth microdilution method in accordance with the Clinical and Laboratory Standards Institute (CLSI) guidelines. In brief, organism suspensions were adjusted to a 0.5 McFarland standard to yield a final inoculum between 3×10^5 and 7×10^5 colony-forming units (CFU)/mL. The inoculum was prepared by suspension of a colony from an agar plate that was prepared the previous day. Compound dilutions and inoculum were prepared in sterile, cation adjusted Mueller-Hinton Broth (Beckton Dickinson).
(§3) Bacteria were suspended in sterile saline and added to each assay plate to obtain a final concentration of 5×10^5 CFU/mL. An inoculum volume of 100 μL was added to wells containing 100 μL of broth with 2-fold serial dilutions of the test compound. All inoculated microdilution trays were incubated in ambient air at 35° C. for 18-24 hours. Following incubation, the lowest concentration of the compound that prevented visible growth (OD 600 nm<0.05) is recorded was the MIC. […] Performance of the assay was monitored by the use of laboratory quality-control strains and a standard compound with a defined MIC spectrum (neomycin), in accordance with CLSI guidelines.
(§4) Several compounds of the disclosure (Compound 1, 2, and 3) were further evaluated against several hundred bacterial isolates (isolated in the United States and Europe, 1:1) selected from the SENTRY Antimicrobial Surveillance Program (JMI Laboratories, North Liberty, Iowa). The set of clinical isolates included 300 randomly selected Enterobacterales, 103 randomly selected P. aeruginosa, 100 randomly selected A. baumannii-calcoaceticus, 20 randomly selected Methicillin-sensitive S. aureus (MSSA), and 30 randomly selected Methicillin-resistant S. aureus (MRSA). In addition, 101 Enterobacterales and 50 P. aeruginosa isolates with genetically defined mechanisms of aminoglycoside resistance were included. The MIC values at which ≥50% (MIC50) and ≥90% (MIC90) of isolates within a given set are inhibited were determined for each compound against each set of organisms.

[3] = test system: AG-resistant Enterobacterales; experiment: as above
Procedure: as §2, §3, §4

[4] = test system: AG-resistant P. aeruginosa; experiment: as above; conditions: Pseudomonas aeruginosa, 50 isolates with defined aminoglycoside resistance
Procedure: as §2, §3, §4

Enterobacterales = experiment: as above
Procedure: as §2, §3, §4

[5] = test system: Methicillin-resistant S. aureus (MRSA); experiment: as above; conditions: Staphylococcus aureus, MRSA, 30 isolates
Procedure: as §2, §3, §4

[6] = test system: Methicillin-sensitive S. aureus (MSSA); experiment: as above; conditions: Staphylococcus aureus, MSSA, 20 isolates
Procedure: as §2, §3, §4

P. aeruginosa [7] = experiment: as above; conditions: Pseudomonas aeruginosa, 103 isolates
Procedure: as §2, §3, §4

[8] = test system: clinical isolates of multi-drug resistant bacterial pathogens including A. baumannii, MRSA, P. aeruginosa, and CRE; experiment: MIC secondary panel, overall statement; conditions: read-out: minimum inhibitory concentration (MIC) values
Procedure: as §2, §3
Several compounds of the disclosure (Compounds 1, 2, 3, and 6) were further evaluated against a secondary panel of clinical isolates of multi-drug resistant bacterial pathogens including A. baumannii, methicillin-resistant Staphylococcus aureus (MRSA), P. aeruginosa, and carbapenem-resistant Enterobacteriaceae (CRE).

[9] = test system: all sets of organisms tested (SENTRY clinical isolates); experiment: Antibacterial surveillance, overall statement; conditions: all sets of organisms tested (Table 3); read-out: MIC50,90 values
Procedure: as §2, §3
as §4, with “The MIC values at which ≥50% (MIC50) and ≥90% (MIC90) of isolates within a given set are inhibited were determined for each compound against each set of organisms.” left out

NCC[C@H](O)C(=O)N[C@@H]1[C@@H](O)[C@H](N)[C@@H](O[C@H]2O[C@H](CN)CC[C@H]2N)[C@H](O[C@@H]2O[C@H](CO)[C@@H](O[C@H]3O[C@@H](CN)[C@@H](O)[C@H](O)[C@H]3N)[C@H]2O)[C@H]1O [Compound 2, (S)-4-amino-N-((1R,2S,3S,4R,5R,6S)-3-amino-5-(((2S,3R,4S,5R)-4-(((2R,3R,4R,5S,6S)-3-amino-6-(aminomethyl)-4,5-dihydroxytetrahydro-2H-pyran-2-yl)oxy)-3-hydroxy-5-(hydroxymethyl)tetrahydrofuran-2-yl)oxy)-4-(((2R,3R,6S)-3-amino-6-(aminomethyl)tetrahydro-2H-pyran-2-yl)oxy)-2,6-dihydroxycyclohexyl)-2-hydroxybutanamide]
≤ 16 µg/mL: MIC [8] | MIC50 [9]
< 16 µg/mL: MIC (A. baumannii; read-out: Activity (MIC), strain NABA0007, ΔadeJK efflux) | MIC (A. baumannii; read-out: Activity (MIC), strain NABA1427, MDR Clinical isolate) | MIC (A. baumannii; read-out: Activity (MIC), strain NABA1433, MDR Clinical isolate) | MIC (A. baumannii; read-out: Activity (MIC), strain NABA1434, MDR Clinical isolate) | MIC (A. baumannii; read-out: Activity (MIC), strain NABA1436, MDR Clinical isolate) | MIC (A. baumannii; read-out: Activity (MIC), strain NABA1437, MDR Clinical isolate) | MIC (A. baumannii; read-out: Activity (MIC), strain NABA1438, MDR Clinical isolate) | MIC (A. baumannii; read-out: Activity (MIC), strain NABA1439, MDR Clinical isolate) | MIC (A. baumannii; read-out: Activity (MIC), strain NABA1448, MDR Clinical isolate) | MIC (A. baumannii; read-out: Activity (MIC), strain NABA1449, MDR Clinical isolate) | MIC (A. baumannii; read-out: Activity (MIC), strain NABA1450, MDR Clinical isolate) | MIC (A. baumannii; strain NABA0006, WT parent, read-out: Activity (MIC)) | MIC (A. baumannii; strain NABA0020, AME negative strain, read-out: Activity (MIC)) | MIC (E. coli; read-out: Activity (MIC), strain AECO1225, MDR Clinical isolate (CDC CRE panel), CDC AR Bank 0118) | MIC (E. coli; read-out: Activity (MIC), strain AECO1226, MDR Clinical isolate (CDC CRE panel), CDC AR Bank 0119) | MIC (E. coli; read-out: Activity (MIC), strain AECO1227, MDR Clinical isolate (CDC CRE panel), CDC AR Bank 0128) | MIC (E. coli; read-out: Activity (MIC), strain NECO0003, ΔtolC) | MIC (E. coli; read-out: Activity (MIC), strain NECO0245, ArmA) | MIC (E. coli; strain NECO0001, WT QC, read-out: Activity (MIC)) | MIC (E. coli; strain NECO0002, WT, read-out: Activity (MIC)) | MIC (E. coli; strain NECO0243, empty vector, read-out: Activity (MIC)) | MIC (E. coli; strain NECO0244, AAC(6')-Ib, read-out: Activity (MIC)) | MIC (E. coli; strain NECO0289, APH(3')-Ia, read-out: Activity (MIC)) | MIC (E. coli; strain NECO0302, AAC(3)-IIa, read-out: Activity (MIC)) | MIC (E. coli; strain NECO0350, AAC(2')-I, read-out: Activity (MIC)) | MIC (E. coli; strain NECO0359, ANT(4')-Ia, read-out: Activity (MIC)) | MIC (K. aerogenes) | MIC (P. aeruginosa [1]; read-out: Activity (MIC), strain NPAE0006, Efflux KO, Aph(3')-IIb) | MIC (P. aeruginosa [1]; read-out: Activity (MIC), strain NPAE0010, MexXY over-expressed, Aph(3')-IIb) | MIC (P. aeruginosa [1]; read-out: Activity (MIC), strain NPAE1288, MDR Clinical isolate) | MIC (P. aeruginosa [1]; read-out: Activity (MIC), strain NPAE1293, MDR Clinical isolate) | MIC (P. aeruginosa [1]; read-out: Activity (MIC), strain NPAE1299, MDR Clinical isolate) | MIC (P. aeruginosa [1]; read-out: Activity (MIC), strain NPAE1302, MDR Clinical isolate) | MIC (P. aeruginosa [1]; read-out: Activity (MIC), strain NPAE1303, MDR Clinical isolate) | MIC (P. aeruginosa [1]; read-out: Activity (MIC), strain NPAE1308, MDR Clinical isolate) | MIC (P. aeruginosa [1]; read-out: Activity (MIC), strain NPAE1310, MDR Clinical isolate) | MIC (P. aeruginosa [1]; read-out: Activity (MIC), strain NPAE1313, MDR Clinical isolate) | MIC (P. aeruginosa [1]; read-out: Activity (MIC), strain NPAE1316, MDR Clinical isolate) | MIC (P. aeruginosa [1]; read-out: Activity (MIC), strain NPAE1323, MDR Clinical isolate) | MIC (P. aeruginosa [1]; strain NPAE0001, WT Aph(3')-IIb, QC, read-out: Activity (MIC)) | MIC (P. aeruginosa [1]; strain NPAE0002, WT Aph(3')-IIb, read-out: Activity (MIC)) | MIC (P. aeruginosa [1]; strain NPAE0359, aph(3')-IIb KO (tetR), read-out: Activity (MIC)) | MIC (P. mirabilis) | MIC (S. enterica) | MIC50 ([2]; read-out: MIC50) | MIC90 ([2]; read-out: MIC90) | MIC50 [3] | MIC90 [3] | MIC50 ([4]; read-out: MIC50) | MIC90 ([4]; read-out: MIC90) | MIC50 (Enterobacterales) | MIC90 (Enterobacterales) | MIC50 ([5]; read-out: MIC50) | MIC90 ([5]; read-out: MIC90) | MIC50 ([6]; read-out: MIC50) | MIC90 ([6]; read-out: MIC90) | MIC50 (P. aeruginosa [7]; read-out: MIC50) | MIC90 (P. aeruginosa [7]; read-out: MIC90)
